Results taken from ChEMBL document CHEMBL5331122, “Structure-Activity Relationship Study of Antimicrobial Peptide PE2 Delivered Novel Linear Derivatives with Potential of Eradicating Biofilms and Low Incidence of Drug Resistance” (J Med Chem, 2023).
Converted amounts (≈) assume the structure as drawn. The source made the active and inactive calls. The calls are words filed in the database; no cut-off is given here.

Tests used:
Format in all cases: functional
Escherichia coli [1] = assay: Antibacterial activity against Escherichia coli ATCC 25922 assessed as bacterial growth inhibition incubated for 18 hrs by broth microdilution method
Klebsiella pneumoniae = assay: Antibacterial activity against Klebsiella pneumoniae ATCC 700603 assessed as bacterial growth inhibition incubated for 18 hrs by broth microdilution method
Pseudomonas aeruginosa = assay: Antibacterial activity against Pseudomonas aeruginosa ATCC 27853 assessed as bacterial growth inhibition incubated for 18 hrs by broth microdilution method
Staphylococcus aureus [2] = assay: Antibacterial activity against Staphylococcus aureus ATCC 25923 assessed as bacterial growth inhibition incubated for 18 hrs by broth microdilution method
Bacillus subtilis = assay: Antibacterial activity against Bacillus subtilis ATCC 23857 assessed as bacterial growth inhibition incubated for 18 hrs by broth microdilution method
Enterococcus faecalis = assay: Antibacterial activity against Enterococcus faecalis ATCC 29212 assessed as bacterial growth inhibition incubated for 18 hrs by broth microdilution method
Escherichia coli [3] = assay: Induction of drug resistance against Escherichia coli ATCC 25922measured after 5 to 7 passages by sequential passaging method
Escherichia coli [4] = assay: Induction of drug resistance against Escherichia coli ATCC 25922 assessed as fold increase in MIC measured upto 15 passages by sequential passaging method
Staphylococcus aureus [5] = assay: Induction of drug resistance against Staphylococcus aureus ATCC 25923 assessed as fold increase in MIC measured upto 15 passages by sequential passaging method
Escherichia coli [6] = assay: Antibacterial activity against rifampicin-resistant Escherichia coli ATCC 25922 assessed as reduction in bacterial growth incubated for 18 hrs by broth microdilution method
Staphylococcus aureus [7] = assay: Antibacterial activity against rifampicin-resistant Staphylococcus aureus ATCC 25923 assessed as reduction in bacterial growth incubated for 18 hrs by broth microdilution method

## CO[C@H]1/C=C/O[C@@]2(C)Oc3c(C)c(O)c4c(O)c(c(/C=N/N5CCN(C)CC5)c(O)c4c3C2=O)NC(=O)/C(C)=C\C=C\[C@H](C)[C@H](O)[C@@H](C)[C@@H](O)[C@@H](C)[C@H](OC(C)=O)[C@@H]1C [RIFAMPIN]
Escherichia coli [1]
  MIC: 4 µg/mL (≈ 4.86 µM)
Klebsiella pneumoniae
  MIC: 32 µg/mL (≈ 38.9 µM)
Pseudomonas aeruginosa
  MIC: 32 µg/mL (≈ 38.9 µM)
Staphylococcus aureus [2]
  MIC: < 1 µg/mL
Bacillus subtilis
  MIC: < 1 µg/mL
Enterococcus faecalis
  MIC: < 1 µg/mL
Escherichia coli [3]
  Activity: Active
Escherichia coli [4]
  fold change (FC): 64
Staphylococcus aureus [5]
  fold change (FC): 512
Escherichia coli [6]
  MIC: 4100 µg/mL (≈ 4980 µM)
Staphylococcus aureus [7]
  MIC: 2050 µg/mL (≈ 2490 µM)
